Counter-ions that a name gives are not always drawn.
Key:
[1] = biological target: T1, α4β2 nACh receptors (Homo sapiens, UniProt P17787+P43681); format: cell-based; details: for positive allosteric modulation (potentiation of ACh), in words: highest concentrations evaluated; for potency as positive allosteric modulator relative to 1: compared with 1
[2] = biological target: T1, α4β2 nACh receptors; assay: Antagonism; format: cell-based
[3] = tested on: α3β2 nACh receptors; details: Xenopus oocytes; cited from earlier work
[4] = biological target: T1, α4β2 nACh receptors; details: potentiation of ACh at α4β2, cited from earlier work
[5] = tested on: α4β4 nACh receptors; details: Xenopus oocytes; cited from earlier work
[6] = biological target: human α7 nACh receptors (Homo sapiens, UniProt P36544); details: at concentrations slightly higher than those potentiating at α4β2; cited from earlier work
Sequence of human α7 nACh receptors (P36544 23-502): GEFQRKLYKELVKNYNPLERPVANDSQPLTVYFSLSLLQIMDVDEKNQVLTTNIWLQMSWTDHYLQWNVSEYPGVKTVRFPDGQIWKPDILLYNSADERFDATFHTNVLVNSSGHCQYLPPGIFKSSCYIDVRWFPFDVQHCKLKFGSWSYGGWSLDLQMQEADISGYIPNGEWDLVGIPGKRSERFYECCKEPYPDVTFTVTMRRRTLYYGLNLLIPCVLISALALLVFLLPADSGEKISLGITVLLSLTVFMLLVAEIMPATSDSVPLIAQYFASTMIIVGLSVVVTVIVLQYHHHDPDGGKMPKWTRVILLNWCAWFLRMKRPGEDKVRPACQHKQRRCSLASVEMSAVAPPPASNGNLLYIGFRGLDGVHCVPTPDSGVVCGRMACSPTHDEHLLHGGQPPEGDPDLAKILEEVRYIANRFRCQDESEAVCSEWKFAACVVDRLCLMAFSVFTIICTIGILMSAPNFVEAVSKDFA

[7] = tested on: α3β4 nACh receptors; details: Xenopus oocytes; cited from earlier work
[8] = tested on: α7 nACh receptors; details: cited from earlier work

T1 sequence (P43681 27-627): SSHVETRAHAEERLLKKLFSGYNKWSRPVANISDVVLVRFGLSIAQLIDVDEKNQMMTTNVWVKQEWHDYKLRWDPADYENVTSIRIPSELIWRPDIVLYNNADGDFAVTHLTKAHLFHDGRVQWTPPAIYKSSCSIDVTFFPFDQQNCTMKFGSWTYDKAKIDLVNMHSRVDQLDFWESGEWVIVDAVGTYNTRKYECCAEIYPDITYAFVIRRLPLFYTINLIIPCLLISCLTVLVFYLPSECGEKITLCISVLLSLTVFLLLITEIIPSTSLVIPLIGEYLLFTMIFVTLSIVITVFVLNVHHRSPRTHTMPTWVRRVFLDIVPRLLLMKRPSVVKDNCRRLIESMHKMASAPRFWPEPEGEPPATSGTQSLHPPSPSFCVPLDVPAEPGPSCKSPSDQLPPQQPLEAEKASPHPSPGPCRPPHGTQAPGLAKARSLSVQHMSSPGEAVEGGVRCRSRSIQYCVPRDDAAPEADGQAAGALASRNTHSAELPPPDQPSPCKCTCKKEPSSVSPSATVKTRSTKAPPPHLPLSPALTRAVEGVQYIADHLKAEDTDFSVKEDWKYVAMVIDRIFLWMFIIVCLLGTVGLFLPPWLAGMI
T1 sequence (P17787 26-502): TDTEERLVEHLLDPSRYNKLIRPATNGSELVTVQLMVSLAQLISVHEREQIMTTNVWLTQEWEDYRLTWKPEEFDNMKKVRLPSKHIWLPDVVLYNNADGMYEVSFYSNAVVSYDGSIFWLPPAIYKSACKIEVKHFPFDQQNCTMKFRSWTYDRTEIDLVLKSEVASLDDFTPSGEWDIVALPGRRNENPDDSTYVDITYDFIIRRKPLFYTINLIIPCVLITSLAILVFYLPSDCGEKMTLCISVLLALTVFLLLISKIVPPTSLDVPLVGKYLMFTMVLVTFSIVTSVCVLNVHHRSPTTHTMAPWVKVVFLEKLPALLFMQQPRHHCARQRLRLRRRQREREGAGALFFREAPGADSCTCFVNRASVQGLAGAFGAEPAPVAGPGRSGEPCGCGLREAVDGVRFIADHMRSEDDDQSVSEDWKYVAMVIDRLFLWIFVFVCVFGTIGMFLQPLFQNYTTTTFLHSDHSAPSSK

SMILES	positive allosteric modulation (potentiation of ACh), in words [1]	IC50 [2]	also measured
CNCCc1c(C(C)C)[nH]c2ccccc12 [Compound 12, N-Methyl-2-isopropyltryptamine Hydrochloride]	inactive		
CCCc1[nH]c2ccccc2c1CCNC [Compound 10, N-Methyl-2-(n-propyl)tryptamine Oxalate]	inactivity	18.6 µM	
C=CC(C)(C)c1[nH]c2cc(Br)ccc2c1CCN [Compound 2, 6-Bromo-2-(1,1-dimethylallyl)tryptamine Hydrochloride]			potency as positive allosteric modulator relative to 1 [1]: about half as potent as 1
CCCc1[nH]c2cc(Br)ccc2c1CCNC [Compound 4, N-Methyl-6-bromo-2-n-propyltryptamine Oxalate]		72.4 µM	
CCC(C)c1[nH]c2ccccc2c1CCNC (stereo not drawn) [Compound 9, N-Methyl-2-sec-butyltryptamine Oxalate]	inactive	16.6 µM	
C=CCc1[nH]c2cc(Br)ccc2c1CCNC [Compound 5, N-Methyl-2-allyl-6-bromotryptamine Oxalate]	lacked potentiating activity	3.55 µM	
CCC(C)(C)c1[nH]c2cc(Br)ccc2c1CCNC [Compound 6, N-Methyl-6-bromo-2-(1,1-dimethylpropyl)tryptamine Oxalate]			potency as positive allosteric modulator relative to 1 [1]: at least as potent, if not twice as potent, as 1
CNCCc1c(C(C)(C)C)[nH]c2ccccc12 [Compound 11, N-Methyl-2-(tert-butyl)tryptamine Hydrogen Oxalate]	active		
C=CC(C)(C)c1[nH]c2cc(Br)ccc2c1CCNC.Cl [Compound 1, des-formylflustrabromine]			potentiation of the actions of ACh at α3β2 [3]: failed to potentiate; pEC50 originally reported [4]: ca. 6.8; EC50 ([4]; read-out: EC50 originally reported): 0.12 µM; potentiation of the actions of ACh at α4β4 [5]: failed to potentiate; inhibition of the action of ACh in an α7 preparation [6]: inhibited; potentiation of the actions of ACh at α3β4 [7]: failed to potentiate; potentiation of the actions of ACh at α7 ([8]; Xenopus oocytes): failed to potentiate; potentiation of the action of ACh in an α7 preparation [8]: failed to potentiate
CNCCc1c[nH]c2cc(Br)ccc12 [Compound 3, N-Methyl-6-bromotryptamine]	failed to enhance the action of ACh	39.8 µM	
